The text below walks through data of patent US20120178766A1, “FUROPYRIMIDINEDIONE DERIVATIVES AS TRPAI MODULATORS” (priority 2009, published 2012).

The structures appear in SMILES notation.

In one test the target is T1, human TRPA1 (Homo sapiens, UniProt O75762).
T1 construct: expressed in transfected cells; host or cells: CHO cells (G-418 selection)
Put plainly: 45Calcium uptake assay: inhibition of AITC induced cellular uptake of radioactive calcium, human TRPA1 expressing CHO cells. The conditions noted are these: AITC 30 μM; for inhibition at 1 µM: 1.0 μM compound, read-out: human TRPA1 Percentage inhibition at 1.0 μM; for inhibition at 10 µM: 10.0 μM compound, read-out: human TRPA1 Percentage inhibition at 10.0 μM; for IC50: class symbols. Type of test: cell-based. From the text: The illustrative examples of the present invention are screened for TRPA1 activity according to a modified procedure described in (a) Tóth, A. et al. Life Sciences, 2003, 73, 487-498. (b) McNamara C, R. et al, Proc. Natl. Acad. Sci. U.S.A., 2007, 104, 13525-13530. The screening of the compounds can be carried out by other methods and procedures known to persons skilled in the art.
(§1) Screening for TRPA1 Antagonist Using the ^45Calcium Uptake Assay:
(§2) The inhibition of TRPA1 receptor activation was measured as inhibition of allyl isothiocyanate (AITC) induced cellular uptake of radioactive calcium.
Test compounds were dissolved in 100% DMSO to prepare 10 mM stock and then diluted using plain medium with 0.1% BSA and 1.8 mM CaCl2 to get the desired concentration. The final concentration of DMSO in the reaction was 0.5% (v/v). Human TRPA1 expressing CHO cells were grown in F-12 DMEM medium with 10% FBS, 1% penicillin-streptomycin solution, and 400 μg/ml of G-418. Rat TRPA1 expressing CHO cells were grown in F-12 DMEM medium with 10% FBS, 1% penicillin-streptomycin solution, and 400 μg/ml of Zeocin. Cells were seeded 24 h prior to the assay in 96 well plates so as to get ˜50,000 cells per well on the day of experiment. Cells were treated with the test compounds for 10 minutes followed by the addition of AITC at a final concentration of 30 μM (for human TRPA1) and/or 10 μM (for rat TRPA1) and 5 μCi/ml ^45Ca^+2 for 3 minutes. Cells were washed and lysed using a buffer containing 1% Triton X-100, 0.1% deoxycholate and 0.1% SDS. Radioactivity in the lysate was measured in a Packard TopCount after addition of liquid scintillant. (Toth et al, Life Sciences (2003) 73, 487-498; McNamara C R et al, Proceedings of the National Academy of Sciences, (2007) 104, 13525-13530).
(§3) Concentration response curves were plotted as a % of maximal response obtained in the absence of test antagonist. IC50 values can be calculated from concentration response curve by nonlinear regression analysis using GraphPad PRISM software.

Another test concerns the target T2, rat TRPA1 (Rattus norvegicus, UniProt Q6RI86).
T2 construct: expressed in transfected cells; host or cells: CHO cells (Zeocin selection)
The test is described as follows: 45Calcium uptake assay: inhibition of AITC induced cellular uptake of radioactive calcium, rat TRPA1 expressing CHO cells. The format is cell-based. The note with it: AITC 10 μM; for inhibition at 10 µM: 10.0 μM compound, read-out: rat TRPA1 Percentage inhibition at 10.0 μM; for inhibition at 1 µM: read-out: rat TRPA1 Percentage inhibition; for IC50: class symbols. As to the method:
as §1, §2
Test compounds were dissolved in 100% DMSO to prepare 10 mM stock and then diluted using plain medium with 0.1% BSA and 1.8 mM CaCl2 to get the desired concentration. The final concentration of DMSO in the reaction was 0.5% (v/v). […] Rat TRPA1 expressing CHO cells were grown in F-12 DMEM medium with 10% FBS, 1% penicillin-streptomycin solution, and 400 μg/ml of Zeocin. […] Cells were treated with the test compounds for 10 minutes followed by the addition of AITC at a final concentration of 30 μM (for human TRPA1) and/or 10 μM (for rat TRPA1) and 5 μCi/ml ^45Ca^+2 for 3 minutes. Cells were washed and lysed using a buffer containing 1% Triton X-100, 0.1% deoxycholate and 0.1% SDS. Radioactivity in the lysate was measured in a Packard TopCount after addition of liquid scintillant.
as §3

T2 sequence (Q6RI86 whole entry): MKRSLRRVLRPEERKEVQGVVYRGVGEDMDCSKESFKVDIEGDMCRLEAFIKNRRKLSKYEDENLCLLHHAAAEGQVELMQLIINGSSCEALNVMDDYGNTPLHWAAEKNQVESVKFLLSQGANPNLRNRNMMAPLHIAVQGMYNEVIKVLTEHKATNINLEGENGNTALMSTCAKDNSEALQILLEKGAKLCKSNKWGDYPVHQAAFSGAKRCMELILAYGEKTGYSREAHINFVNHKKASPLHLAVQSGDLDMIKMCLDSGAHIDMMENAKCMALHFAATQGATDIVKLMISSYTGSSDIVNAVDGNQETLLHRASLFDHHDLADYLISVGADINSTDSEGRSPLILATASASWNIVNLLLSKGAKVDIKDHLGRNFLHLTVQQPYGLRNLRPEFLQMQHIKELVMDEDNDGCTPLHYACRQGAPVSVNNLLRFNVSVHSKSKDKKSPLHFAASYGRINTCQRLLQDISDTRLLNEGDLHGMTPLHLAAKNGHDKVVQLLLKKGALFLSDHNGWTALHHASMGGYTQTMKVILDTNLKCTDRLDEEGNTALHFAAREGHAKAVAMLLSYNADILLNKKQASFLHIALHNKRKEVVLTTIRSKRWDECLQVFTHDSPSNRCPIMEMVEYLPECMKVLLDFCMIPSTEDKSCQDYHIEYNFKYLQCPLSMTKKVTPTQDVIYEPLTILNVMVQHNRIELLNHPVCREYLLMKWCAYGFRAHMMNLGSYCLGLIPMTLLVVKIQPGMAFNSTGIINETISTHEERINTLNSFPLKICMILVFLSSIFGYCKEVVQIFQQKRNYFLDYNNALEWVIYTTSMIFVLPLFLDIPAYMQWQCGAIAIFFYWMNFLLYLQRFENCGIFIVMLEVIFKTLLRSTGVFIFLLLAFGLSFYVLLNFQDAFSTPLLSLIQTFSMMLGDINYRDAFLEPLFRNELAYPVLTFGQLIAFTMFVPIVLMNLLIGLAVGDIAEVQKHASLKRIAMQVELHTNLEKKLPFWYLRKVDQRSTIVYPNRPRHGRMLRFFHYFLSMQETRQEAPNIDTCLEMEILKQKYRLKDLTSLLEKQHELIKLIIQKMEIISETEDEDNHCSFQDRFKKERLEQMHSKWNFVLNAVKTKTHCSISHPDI
T1 sequence (O75762 whole entry): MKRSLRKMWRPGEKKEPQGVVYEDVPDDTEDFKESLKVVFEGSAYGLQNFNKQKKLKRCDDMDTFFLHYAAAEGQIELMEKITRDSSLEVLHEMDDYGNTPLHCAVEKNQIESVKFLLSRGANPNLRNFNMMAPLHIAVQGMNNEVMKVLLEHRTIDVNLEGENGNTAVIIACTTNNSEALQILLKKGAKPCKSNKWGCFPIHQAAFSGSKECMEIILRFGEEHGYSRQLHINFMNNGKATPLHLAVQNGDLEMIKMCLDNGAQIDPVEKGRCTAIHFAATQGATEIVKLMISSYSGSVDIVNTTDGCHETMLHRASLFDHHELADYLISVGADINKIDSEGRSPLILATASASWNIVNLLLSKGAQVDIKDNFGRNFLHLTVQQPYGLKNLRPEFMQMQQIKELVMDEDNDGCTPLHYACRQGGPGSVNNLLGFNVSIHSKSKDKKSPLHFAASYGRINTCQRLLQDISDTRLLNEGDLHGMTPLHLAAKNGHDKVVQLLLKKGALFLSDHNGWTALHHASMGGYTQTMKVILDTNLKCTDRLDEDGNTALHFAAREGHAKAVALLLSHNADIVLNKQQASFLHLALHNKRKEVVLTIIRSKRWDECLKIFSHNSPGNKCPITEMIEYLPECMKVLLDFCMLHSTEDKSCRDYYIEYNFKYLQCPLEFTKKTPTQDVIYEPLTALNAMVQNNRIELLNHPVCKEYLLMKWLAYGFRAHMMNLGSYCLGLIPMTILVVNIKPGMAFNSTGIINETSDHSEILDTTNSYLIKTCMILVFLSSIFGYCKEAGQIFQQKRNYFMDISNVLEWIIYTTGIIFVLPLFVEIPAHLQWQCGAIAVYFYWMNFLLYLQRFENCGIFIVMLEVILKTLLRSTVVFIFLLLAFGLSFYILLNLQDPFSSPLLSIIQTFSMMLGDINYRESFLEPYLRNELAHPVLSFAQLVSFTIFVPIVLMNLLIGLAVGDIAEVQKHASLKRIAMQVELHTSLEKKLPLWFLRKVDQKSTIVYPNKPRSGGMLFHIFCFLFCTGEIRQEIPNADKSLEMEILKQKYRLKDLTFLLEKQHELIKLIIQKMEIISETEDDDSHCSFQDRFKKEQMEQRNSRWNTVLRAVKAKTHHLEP

In general, inhibition refers to the relative decrease from the control value, in per cent. Broadly, the IC50 is the point on the concentration scale where inhibition reaches its midpoint. Regarding `Cn1c(=O)c2c(CC(=O)Nc3nc(-c4ccc(OCC(C)(C)C)c(Cl)c4)cs3)coc2n(C)c1=O` [Example 27, N1-{4-[3-Chloro-4-(2,2-dimethylpropoxy)phenyl]-1,3-thiazol-2-yl}-2-(1,3-dimethyl-2,4-dioxo-1,2,3,4-tetrahydrofuro[2,3-d]pyrimidin-5-yl)acetamide], on human TRPA1, the inhibition at 1 µM was found to be 97.1%, the inhibition at 10 µM amounted to 99.2% and the IC50 is above 100 nM. In addition, on rat TRPA1, the inhibition at 10 µM turned out to be 100% and the inhibition at 1 µM is 93.1%.

Take `Cn1c(=O)c2c(CC(=O)Nc3nc(-c4ccc(OCC(C)(C)C)c(Br)c4)cs3)coc2n(C)c1=O` [Example 28, N1-{4-[3-Bromo-4-(2,2-dimethylpropoxy)phenyl]-1,3-thiazol-2-yl}-2-(1,3-dimethyl-2,4-dioxo-1,2,3,4-tetrahydrofuro[2,3-d]pyrimidin-5-yl)acetamide]: on human TRPA1, the inhibition at 1 µM worked out at 96.7%, the inhibition at 10 µM is 99.3% and the IC50 is above 100 nM. Further, at rat TRPA1, the inhibition at 10 µM is 100% and the inhibition at 1 µM is 98.5%.

As for `Cn1c(=O)c2c(CC(=O)Nc3nc(-c4ccc(OCC(F)(F)F)c(F)c4)cs3)coc2n(C)c1=O` [Example 30, N1-{4-[3-Fluoro-4-(2,2,2-trifluoroethoxy)phenyl]-1,3-thiazol-2-yl}2-(1,3-dimethyl-2,4-dioxo-1,2,3,4-tetrahydrofuro[2,3-d]pyrimidin-5-yl)acetamide], at human TRPA1, the inhibition at 1 µM came out at 97.4%, the inhibition at 10 µM was 100% and the IC50 was below 50 nM. Moreover, on rat TRPA1, the inhibition at 10 µM came out at 100%, the inhibition at 1 µM was determined as 97.1% and the 50% inhibitory concentration (IC50) is above 100 nM.

Consider `Cn1c(=O)c2c(CC(=O)Nc3nc(-c4ccc(OCC(F)(F)F)c(Cl)c4)cs3)coc2n(C)c1=O` [Example 31, N1-{4-[3-Chloro-4-(2,2,2-trifluoroethoxy)phenyl]-1,3-thiazol-2-yl}2-(1,3-dimethyl-2,4-dioxo-1,2,3,4-tetrahydrofuro[2,3-d]pyrimidin-5-yl)acetamide], for which, on human TRPA1, the inhibition at 1 µM worked out at 98.3%, the inhibition at 10 µM came to 99.8% and the IC50 is below 50 nM. For the same compound, at rat TRPA1, the inhibition at 10 µM is 100%, the inhibition at 1 µM was 96.8% and the IC50 was in the range of 50 to 100 nM.

`Cn1c(=O)c2c(CC(=O)Nc3nc(-c4ccc(OCC(F)(F)F)c(Br)c4)cs3)coc2n(C)c1=O` [Example 32, N1-{4-[3-Bromo-4-(2,2,2-trifluoroethoxy)phenyl]-1,3-thiazol-2-yl}2-(1,3-dimethyl-2,4-dioxo-1,2,3,4-tetrahydrofuro[2,3-d]pyrimidin-5-yl)acetamide]: at human TRPA1, the inhibition at 1 µM came out at 99.8%, the inhibition at 10 µM turned out to be 99.5% and the concentration for half-maximal inhibition (IC50) is below 50 nM. On rat TRPA1, the inhibition at 10 µM came to 100%, the inhibition at 1 µM worked out at 85.2% and the IC50 was below 50 nM.

Consider `Cn1c(=O)c2c(CC(=O)Nc3nc(-c4ccc(Cl)c(Cl)c4Cl)cs3)coc2n(C)c1=O` [Example 34, N1-[4-(2,3,4-Trichlorophenyl)-1,3-thiazol-2-yl]-2-(1,3-dimethyl-2,4-dioxo-1,2,3,4-tetrahydrofuro[2,3-d]pyrimidin-5-yl)acetamide], for which, at human TRPA1, the inhibition at 1 µM was found to be 97%, the inhibition at 10 µM was 99.7% and the IC50 is below 50 nM. Moreover, at rat TRPA1, the inhibition at 10 µM amounted to 99.3%, the inhibition at 1 µM turned out to be 91% and the IC50 lay in the range of 50 to 100 nM.

On to `Cn1c(=O)c2c(CC(=O)Nc3nc(-c4ccc(F)c(C(F)(F)F)c4F)cs3)coc2n(C)c1=O` [Example 35, N1-{4-[2,4-Difluoro-3-(trifluoromethyl)phenyl]-1,3-thiazol-2-yl}2-(1,3-dimethyl-2,4-dioxo-1,2,3,4-tetrahydrofuro[2,3-d]pyrimidin-5-yl)acetamide], for which, at human TRPA1, the inhibition at 1 µM was found to be 99.8%, the inhibition at 10 µM stood at 98.4% and the half-maximal inhibitory concentration (IC50) is below 50 nM. In addition, the IC50 at rat TRPA1 is below 50 nM.

For `Cn1c(=O)c2c(CC(=O)Nc3nc(-c4cc(F)c(C(F)(F)F)c(F)c4)cs3)coc2n(C)c1=O` [Example 36, N1-{4-[3,5-Difluoro-4-(trifluoromethyl)phenyl]-1,3-thiazol-2-yl}-2-(1,3-dimethyl-2,4-dioxo-1,2,3,4-tetrahydrofuro[2,3-d]pyrimidin-5-yl)acetamide], on human TRPA1, the inhibition at 1 µM came out at 99.7%, the inhibition at 10 µM was found to be 99.6% and the IC50 was below 50 nM. For the same compound, on rat TRPA1, the inhibition at 10 µM came out at 100%, the inhibition at 1 µM was 100% and the IC50 fell in the range of 50 to 100 nM.

With `Cn1c(=O)c2c(CC(=O)Nc3nc(-c4cc(F)c(OC(F)F)c(F)c4)cs3)coc2n(C)c1=O` [Example 37, N1-{4-[3,5-Difluoro-4-(difluoromethoxy)phenyl]-1,3-thiazol-2-yl}-2-(1,3-dimethyl-2,4-dioxo-1,2,3,4-tetrahydrofuro[2,3-d]pyrimidin-5-yl)acetamide], at human TRPA1, the inhibition at 1 µM was 99.9%, the inhibition at 10 µM stood at 99.7% and the IC50 is below 50 nM. Further, at rat TRPA1, the inhibition at 10 µM is 100%, the inhibition at 1 µM worked out at 100% and the IC50 lay in the range of 50 to 100 nM.

On to `Cn1c(=O)c2c(CC(=O)Nc3nc(-c4cc(Cl)c(OC(F)F)c(Cl)c4)cs3)coc2n(C)c1=O` [Example 38, N1-{4-[3,5-Dichloro-4-(difluoromethoxy)phenyl]-1,3-thiazol-2-yl}-2-(1,3-dimethyl-2,4-dioxo-1,2,3,4-tetrahydrofuro[2,3-d]pyrimidin-5-yl)acetamide], for which, on human TRPA1, the inhibition at 1 µM worked out at 99.8%, the inhibition at 10 µM was 99.9% and the IC50 was below 50 nM. For the same compound, on rat TRPA1, the inhibition at 10 µM is 100%, the inhibition at 1 µM worked out at 67% and the IC50 was above 100 nM.

Take `Cn1c(=O)c2c(CC(=O)Nc3nc(-c4cc(F)c(OCC5CC5)c(F)c4)cs3)coc2n(C)c1=O` [Example 39, N1-{4-[4-(Cyclopropylmethoxy)-3,5-difluorophenyl]-1,3-thiazol-2-yl]-2-(1,3-dimethyl-2,4-dioxo-1,2,3,4-tetrahydrofuro[2,3-d]pyrimidin-5-yl)acetamide]: at human TRPA1, the inhibition at 1 µM amounted to 94.2%, the inhibition at 10 µM came to 98.7% and the IC50 is below 50 nM. In addition, the half-maximal inhibitory concentration (IC50) at rat TRPA1 is above 100 nM.

On to `CC(C)COc1c(F)cc(-c2csc(NC(=O)Cc3coc4c3c(=O)n(C)c(=O)n4C)n2)cc1F` [Example 40, N1-{4-(3,5-Difluoro-4-isobutoxyphenyl)-1,3-thiazol-2-yl}2-(1,3-dimethyl-2,4-dioxo-1,2,3,4-tetrahydrofuro[2,3-d]pyrimidin-5-yl)acetamide], for which, on human TRPA1, the inhibition at 1 µM was determined as 93.2%, the inhibition at 10 µM was found to be 99.2% and the IC50 was below 50 nM. Besides, at rat TRPA1, the inhibition at 10 µM came out at 99.6%, the inhibition at 1 µM is 99.2% and the IC50 was below 50 nM.

Regarding `CC(C)COc1c(Cl)cc(-c2csc(NC(=O)Cc3coc4c3c(=O)n(C)c(=O)n4C)n2)cc1Cl` [Example 41, N1-[4-(3,5-Dichloro-4-isobutoxyphenyl)-1,3-thiazol-2-yl]-2-(1,3-dimethyl-2,4-dioxo-1,2,3,4-tetrahydrofuro[2,3-d]pyrimidin-5-yl)acetamide], at human TRPA1, the inhibition at 1 µM stood at 99.6%, the inhibition at 10 µM worked out at 100% and the IC50 is below 50 nM. Further, on rat TRPA1, the inhibition at 10 µM amounted to 100%, the inhibition at 1 µM is 99.5% and the IC50 was below 50 nM.
